From US10457709B2, “Antimicrobial peptides, their variants and uses” (priority 2015, dated 2019)
Converted amounts (≈) assume the structure as drawn. Square brackets hold non-standard residues; d marks the D form. Ends that are not written are not given here. Peptide text beside a SMILES is read from it.

Tests used:
S. aureus COL (MRSA) = assay type: cell-based, Staphylococcus aureus
Protocol: (§1) Minimum inhibition concentrations (MICs) were determined against Escherichia coli (ATCC 25922), Staphylococcus aureus (ATCC 25923), Klebsiella pneumoniae (ATCC 10031) and Pseudomonas aeruginosa (ATCC 27853). Also clinical strains of E. coli, K. pneumoniae, E. cloacae, P. aeruginosa, Serratia marcescens, Proteus mirabilis, S. pneumoniae, Acinetobacter baumannii, A. johnsonii and S. aureus were used for MICs assays. Additionally, clinical strains of yeast including Candida albicans, C. glabrata, C. parapsilosis and C. quillermondiae were used. The susceptibility of these microorganisms to Chain peptides were determined using micro broth dilution assay. Colonies of the respective microorganism from Muller Hinton (MH) agar plates incubated overnight were suspended in MH broth media and final concentration of microorganism was adjusted to 5.0×10^5 cfu/ml. An aliquot of 10 μl of each Chain peptide, or gentamicin, tetracycline as reference antibiotics were added in differing concentrations along with 90 μl of bacterial suspension to 96 well polypropylene plates and incubated at 37° C. for 20 to 24 hours. Concentrations of Chain peptides and reference antibiotics ranged from 0.125 to 128 μg/ml and the MICs were recorded as the lowest concentration with no visual growth of bacteria. Similarly, antifungal MICs were tested in Potato dextrose broth.
(§2) Peptides Chain 104, Chain 105, Chain 201, Chain 308, Chain 310 were tested against antibiotic-sensitive strains of S. aureus RN4220 and methicillin resistant strains of S. aureus COL (MRSA). Chain peptides comprising of either L- or D-form amino acids were tested against these bacteria, and the D-form peptides were found have better activity compared to L-form (Table 6). Synergistic activity of chain peptides along with Ertapenem (4 μg/ml) was tested to know whether it will influence the activity against MRSA strains. […] Chain 310 has the best antibacterial activity against the MRSA strains with a MIC of 0.06 & 0.03 μg/ml along with Ertapenem (4 μg/ml) for both forms of L and D-peptides (Table 6).

S. aureus RN4220 = assay type: cell-based, Staphylococcus aureus; details: antibiotic sensitive strain S. aureus RN4220
Protocol: as §1, §2

[1] = test system: MRSA strains (S. aureus COL); assay: MIC, synergistic activity with Ertapenem (4 μg/ml); assay type: cell-based, Staphylococcus aureus; details: S. aureus COL, synergistic activity with 4 μg/ml Ertapenem
Protocol: as §1, §2

[2] = test system: Enterobacter cloacae clinical strains; assay type: cell-based; details: clinical strains
Protocol: as §1
(§3) Clinical strains of yeasts including Candida albicans, C. glabrata, C. parapsilosis and C. quillermondiae were also tested with the 12 Chain peptides. The minimum inhibitory concentration (MICs) varied between these peptides and are presented in Tables 4a, 4b, 4c and 5a, 5b, 5c. Peptides Chain 105, 201 and 308 are broad spectrum antimicrobials with MICs between 0.5-32 μg/ml against all the bacteria and yeasts tested, except Serratia marcescens and Proteus mirabilis, against which the MICs were between 64-128 μg/ml. Peptide Chain 306 has narrow spectrum activity against E. coli at 1 μg/ml and for the rest of the bacterial strains at >32 μg/ml (FIG. 10c).

[3] = test system: Proteus mirabilis clinical strains; assay type: cell-based; details: clinical strains
Protocol: as §1, §3

[4] = test system: Serratia marcescens clinical strains; assay type: cell-based; details: clinical strains
Protocol: as §1, §3

[5] = test system: Staphylococcus aureus clinical strains; assay type: cell-based; details: clinical strains
Protocol: as §1, §3

[6] = test system: Streptococcus pneumoniae clinical strains; assay type: cell-based; details: clinical strains
Protocol: as §1, §3

[7] = test system: Candida albicans clinical strains; assay: MIC, clinical yeast strains; assay type: cell-based; set-up: unit: μg/ml
Protocol: as §1, §3

[8] = test system: C. glabrata clinical strains; assay: MIC, clinical yeast strains; assay type: cell-based, Candida glabrata; set-up: unit: µg/ml
Protocol: as §1, §3

[9] = test system: C. parapsilosis clinical strains; assay: MIC, clinical yeast strains; assay type: cell-based, Candida parapsilosis; set-up: unit: µg/ml
Protocol: as §1, §3

[10] = test system: C. quillermondiae clinical strains; assay: MIC, clinical yeast strains; assay type: cell-based, Candida quillermondiae; set-up: unit: μg/ml; details: C. quillermondiae clinical yeast strain 1
Protocol: as §1, §3

[11] = test system: Escherichia coli clinical strains; assay type: cell-based; details: clinical strains
Protocol: as §1, §3

[12] = test system: Klebsiella pneumoniae clinical strains; assay type: cell-based; details: clinical strains
Protocol: as §1, §3

[13] = test system: Pseudomonas aeruginosa clinical strains; assay type: cell-based; details: clinical strains
Protocol: as §1, §3

Compound: RKWRAMIRLHAKWLRK [Compound 105]
- Minimum inhibitory concentration (MIC), S. aureus COL (MRSA) (S. aureus COL (MRSA)): >64 µg/mL
- Minimum inhibitory concentration (MIC), S. aureus RN4220 (S. aureus RN4220): >64 µg/mL
- Minimum inhibitory concentration (MIC), S. aureus COL + 4 μg/ml Ertapenem [1]: 0.5 µg/mL

Compound: CC(C)C[C@@H](NC(=O)[C@@H](CCCCN)NC(=O)[C@@H](Cc1c[nH]c2ccccc12)NC(=O)[C@@H](CCCCN)NC(=O)[C@@H](C)NC(=O)[C@@H](Cc1c[nH]cn1)NC(=O)[C@@H](CC(C)C)NC(=O)[C@@H](CCCNC(=N)N)NC(=O)[C@@H](Cc1c[nH]c2ccccc12)NC(=O)[C@H](N)Cc1c[nH]c2ccccc12)C(=O)N[C@H](Cc1c[nH]c2ccccc12)C(=O)O [Chain109D] (H-[dW][dW][dR][dL][dH][dA][dK][dW][dK][dL][dW]-OH)
- MIC, Enterobacter cloacae strain 1 [2]: 4 µg/mL (≈ 2.48 µM)
- MIC, Enterobacter cloacae strain 2 [2]: 8 µg/mL (≈ 4.97 µM)
- MIC, Enterobacter cloacae strain 3 [2]: 8 µg/mL (≈ 4.97 µM)
- MIC, Enterobacter cloacae strain 4 [2]: 8 µg/mL (≈ 4.97 µM)
- MIC, Enterobacter cloacae strain 5 [2]: 4 µg/mL (≈ 2.48 µM)
- MIC, Proteus mirabilis strain 1 [3]: >128 µg/mL
- MIC, Proteus mirabilis strain 2 [3]: 64 µg/mL (≈ 39.8 µM)
- MIC, Proteus mirabilis strain 3 [3]: 64 µg/mL (≈ 39.8 µM)
- MIC, Proteus mirabilis strain 4 [3]: >128 µg/mL
- MIC, Proteus mirabilis strain 5 [3]: >128 µg/mL
- MIC, Serratia marcescens strain 1 [4]: >128 µg/mL
- MIC, Serratia marcescens strain 2 [4]: >128 µg/mL
- MIC, Serratia marcescens strain 3 [4]: >128 µg/mL
- MIC, Serratia marcescens strain 4 [4]: >128 µg/mL
- MIC, Serratia marcescens strain 5 [4]: 64 µg/mL (≈ 39.8 µM)
- MIC, Staphylococcus aureus strain 1 [5]: 2 µg/mL (≈ 1.24 µM)
- MIC, Staphylococcus aureus strain 2 [5]: 4 µg/mL (≈ 2.48 µM)
- MIC, Staphylococcus aureus strain 3 [5]: 2 µg/mL (≈ 1.24 µM)
- MIC, Staphylococcus aureus strain 4 [5]: 2 µg/mL (≈ 1.24 µM)
- MIC, Staphylococcus aureus strain 5 [5]: 2 µg/mL (≈ 1.24 µM)
- MIC, Streptococcus pneumoniae strain 1 [6]: 16 µg/mL (≈ 9.94 µM)
- MIC, Streptococcus pneumoniae strain 2 [6]: 8 µg/mL (≈ 4.97 µM)
- MIC, Streptococcus pneumoniae strain 3 [6]: 2 µg/mL (≈ 1.24 µM)
- MIC, Streptococcus pneumoniae strain 4 [6]: 8 µg/mL (≈ 4.97 µM)
- MIC, Streptococcus pneumoniae strain 5 [6]: 8 µg/mL (≈ 4.97 µM)
- Minimum inhibitory concentration ([7]; Candida albicans clinical yeast strain 1): 128
- Minimum inhibitory concentration ([7]; Candida albicans clinical yeast strain 2): 128
- Minimum inhibitory concentration ([7]; Candida albicans clinical yeast strain 3): 128
- Minimum inhibitory concentration ([7]; Candida albicans clinical yeast strain 4): 128
- Minimum inhibitory concentration ([7]; Candida albicans clinical yeast strain 5): 128
- Minimum inhibitory concentration ([8]; C. glabrata clinical yeast strain 1): 128
- Minimum inhibitory concentration ([8]; C. glabrata clinical yeast strain 2): 128
- Minimum inhibitory concentration ([8]; C. glabrata clinical yeast strain 3): 16
- Minimum inhibitory concentration ([8]; C. glabrata clinical yeast strain 4): 64
- Minimum inhibitory concentration ([9]; C. parapsilosis clinical yeast strain 1): 128
- Minimum inhibitory concentration ([9]; C. parapsilosis clinical yeast strain 2): 128
- Minimum inhibitory concentration ([9]; C. parapsilosis clinical yeast strain 3): 128
- Minimum inhibitory concentration ([9]; C. parapsilosis clinical yeast strain 4): 8
- Minimum inhibitory concentration [10]: 128
- MIC, Escherichia coli strain 1 [11]: 16 µg/mL (≈ 9.94 µM)
- MIC, Escherichia coli strain 2 [11]: 4 µg/mL (≈ 2.48 µM)
- MIC, Escherichia coli strain 3 [11]: 4 µg/mL (≈ 2.48 µM)
- MIC, Escherichia coli strain 4 [11]: 4 µg/mL (≈ 2.48 µM)
- MIC, Escherichia coli strain 5 [11]: 4 µg/mL (≈ 2.48 µM)
- MIC, Klebsiella pneumoniae strain 1 [12]: 16 µg/mL (≈ 9.94 µM)
- MIC, Klebsiella pneumoniae strain 2 [12]: 8 µg/mL (≈ 4.97 µM)
- MIC, Klebsiella pneumoniae strain 3 [12]: 8 µg/mL (≈ 4.97 µM)
- MIC, Klebsiella pneumoniae strain 4 [12]: 16 µg/mL (≈ 9.94 µM)
- MIC, Klebsiella pneumoniae strain 5 [12]: 8 µg/mL (≈ 4.97 µM)
- MIC, Pseudomonas aeruginosa strain 1 [13]: 16 µg/mL (≈ 9.94 µM)
- MIC, Pseudomonas aeruginosa strain 2 [13]: 16 µg/mL (≈ 9.94 µM)
- MIC, Pseudomonas aeruginosa strain 3 [13]: 16 µg/mL (≈ 9.94 µM)
- MIC, Pseudomonas aeruginosa strain 4 [13]: 16 µg/mL (≈ 9.94 µM)
- MIC, Pseudomonas aeruginosa strain 5 [13]: 8 µg/mL (≈ 4.97 µM)

Compound: RKWRAMIRLHAKRLRK [Compound 104]
- Minimum inhibitory concentration (MIC), S. aureus COL (MRSA) (S. aureus COL (MRSA)): >64 µg/mL
- Minimum inhibitory concentration (MIC), S. aureus RN4220 (S. aureus RN4220): >64 µg/mL
- Minimum inhibitory concentration (MIC), S. aureus COL + 4 μg/ml Ertapenem [1]: 0.25 µg/mL

Compound: KWIVWRWRFKR [Compound 201]
- Minimum inhibitory concentration (MIC), S. aureus COL (MRSA) (S. aureus COL (MRSA)): 64 µg/mL
- Minimum inhibitory concentration (MIC), S. aureus RN4220 (S. aureus RN4220): 64 µg/mL
- Minimum inhibitory concentration (MIC), S. aureus COL + 4 μg/ml Ertapenem [1]: 0.5 µg/mL

Compound: CC[C@@H](C)[C@@H](NC(=O)[C@@H](CCSC)NC(=O)[C@@H](C)NC(=O)[C@@H](CCCNC(=N)N)NC(=O)[C@@H](Cc1c[nH]c2ccccc12)NC(=O)[C@@H](CCCCN)NC(=O)[C@H](N)CCCNC(=N)N)C(=O)N[C@H](CCCNC(=N)N)C(=O)N[C@H](CC(C)C)C(=O)N[C@H](Cc1c[nH]cn1)C(=O)N[C@H](C)C(=O)N[C@H](CCCCN)C(=O)N[C@H](CCCNC(=N)N)C(=O)N[C@H](CC(C)C)C(=O)N[C@H](CCCNC(=N)N)C(=O)N[C@H](CCCCN)C(=O)O [104 D] (H-[dR][dK][dW][dR][dA][dM][dI][dR][dL][dH][dA][dK][dR][dL][dR][dK]-OH)
- Minimum inhibitory concentration (MIC), S. aureus COL (MRSA) (S. aureus COL (MRSA)): 32 µg/mL
- Minimum inhibitory concentration (MIC), S. aureus RN4220 (S. aureus RN4220): 64 µg/mL
- Minimum inhibitory concentration (MIC), S. aureus COL + 4 μg/ml Ertapenem [1]: 4 µg/mL

Compound: CC(C)C[C@@H](NC(=O)[C@H](N)CCCNC(=N)N)C(=O)N[C@H](CCCCN)C(=O)N[C@H](Cc1c[nH]c2ccccc12)C(=O)N[C@H](Cc1ccccc1)C(=O)N[C@H](CC(C)C)C(=O)N[C@H](CC(C)C)C(=O)N[C@H](Cc1ccccc1)C(=O)N[C@H](CCCNC(=N)N)C(=O)N[C@H](CCCCN)C(=O)N[C@H](CCCNC(=N)N)C(=O)O [308 D] (H-[dR][dL][dK][dW][dF][dL][dL][dF][dR][dK][dR]-OH)
- Minimum inhibitory concentration (MIC), S. aureus COL (MRSA) (S. aureus COL (MRSA)): 4 µg/mL
- Minimum inhibitory concentration (MIC), S. aureus RN4220 (S. aureus RN4220): 4 µg/mL
- Minimum inhibitory concentration (MIC), S. aureus COL + 4 μg/ml Ertapenem [1]: 1 µg/mL

Compound: CC(C)C[C@@H](NC(=O)[C@@H](CCCCN)NC(=O)[C@@H](CCCCN)NC(=O)[C@@H](Cc1ccccc1)NC(=O)[C@@H](CC(C)C)NC(=O)[C@@H](Cc1c[nH]c2ccccc12)NC(=O)[C@@H](CCCNC(=N)N)NC(=O)[C@@H](Cc1c[nH]c2ccccc12)NC(=O)[C@@H](CCCCN)NC(=O)[C@@H](CCCNC(=N)N)NC(=O)[C@H](N)CCCCN)C(=O)O [310 D] (H-[dK][dR][dK][dW][dR][dW][dL][dF][dK][dK][dL]-OH)
- Minimum inhibitory concentration (MIC), S. aureus COL (MRSA) (S. aureus COL (MRSA)): >64 µg/mL
- Minimum inhibitory concentration (MIC), S. aureus RN4220 (S. aureus RN4220): >64 µg/mL
- Minimum inhibitory concentration (MIC), S. aureus COL + 4 μg/ml Ertapenem [1]: <0.03 µg/mL
